Data from patent US8933015B2, “Macrocyclic inhibitors of flaviviridae viruses” (Gilead Sciences, Inc., priority 2010, dated 2015).

How the values were obtained:
cyclophilin A = cyclophilin A (Homo sapiens, UniProt P62937); assay: Cyclophilin A TR-FRET competitive binding assay; settings: inhibition of cyclophilin binding; 5 nM CypA, 150 nM CsA-Cy5
Procedure: Cyclophilin A TR-FRET Competitive Binding Assay
Inhibitor potency was measured using a competitive binding assay with a time-resolved fluorescence resonance energy transfer (TR-FRET) readout. […] The total volume of the assay solution was 100 μL. […] An IC50 value was calculated using a four-parameter logistic fit.

[1] = test system: human hepatoma Huh-7 cell line harboring a HCV replicon; assay: HCV replicon assay (inhibition of viral replication, luciferase); type: cell-based; settings: Hepatitis C virus; for EC50: Huh-7, 72 h; for inhibition at 1 µM: Huh-7, read-out: % inhibition at 1 μM
Procedure: The anti-HCV activity of the compounds of this invention was tested in a human hepatoma Huh-7 cell line harboring a HCV replicon. The assay comprised the following steps:
Step 1: Compound Preparation and Serial Dilution
Serial dilution was performed in 100% DMSO in a 384-well plate. A solution containing a compound at 225-fold concentration of the starting final serial dilution concentration was prepared in 100% DMSO and 15 uL added to the pre-specified wells in column 3 or 13 of a polypropylene 384-well plate. The rest of the 384-well plate was filled with 10 uL 100% DMSO except for columns 23 and 24, where 10 uL of 500 uM a HCV protease inhibitor (ITMN-191) in 100% DMSO was added. […] The plate was then placed on a Biomek FX Workstation to start the serial dilution. The serial dilution was performed for ten cycles of 3-fold dilution from column 3 to 12 or from column 13 to 22.
Step 2: Cell Culture Plate Preparation and Compound Addition
To each well of a black polypropylene 384-well plate, 90 μL of cell media containing 1600 suspended Huh-7 HCV replicon cells was added with a Biotek uFlow Workstation. A volume of 0.4 μL of the compound solution was transferred from the serial dilution plate to the cell culture plate on a Biomek FX Workstation. The DMSO concentration in the final assay condition was 0.44%. The plates were incubated for 3 days at 37° C. with 5% CO2 and 85% humidity.
Step 3: Detection of Cytotoxicity and Inhibition of Viral Replication
b) Assessment of inhibition of viral replication: The calcein-PBS solution in the 384-well cell culture plate was aspirated with a Biotek EL405 plate-washer. A volume of 20 μL of Dual-Glo luciferase buffer (Promega, Dual-Glo Luciferase Assay Reagent, cat. #E298B) was added to each well of the plate with a Biotek uFlow Workstation. The plate was incubated for 10 minutes at room temperature. A volume of 20 μL of a solution containing 1:100 mixture of Dual-Glo Stop & Glo substrate (Promega, Dual-Glo Luciferase Assay Reagent, cat. #E313B) and Dual-Glo Stop & Glo buffer (Promega, Dual-Glo Luciferase Assay Reagent, cat. #E314B) was then added to each well of the plate with a Biotek uFlow Workstation. The plate was incubated at room temperature for 10 minutes before the luminescence signal was measured with a Perkin Elmer Envision Plate Reader.
The percent cytotoxicity was determined by calcein AM conversion to fluorescent product. The average fluorescent signal from the DMSO control wells were defined as 100% nontoxic. The individual fluorescent signal from testing compound treated well was divided by the average signal from DMSO control wells and then multiplied by 100% to get the percent viability. The percent anti-HCV replication activity was determined by the luminescence signal from the testing well compared to DMSO controls wells. The background signal was determined by the average luminescence signal from the HCV protease inhibitor treated wells and was subtracted from the signal from the testing wells as well as the DMSO control wells.
Where b is Hill's coefficient. See, for reference, Hill, A. V., The Possible Effects of the Aggregation of the Molecules of Hemoglobin on its Dissociation Curves, J. Physiol. 40: iv-vii. (1910).
% inhibition values at a specific concentration, for example 2 μM, can also be derived from the formula above.
The EC50's are presented as a % inhibition.

cyclophilin A, sequence (P62937 whole entry, species assumed): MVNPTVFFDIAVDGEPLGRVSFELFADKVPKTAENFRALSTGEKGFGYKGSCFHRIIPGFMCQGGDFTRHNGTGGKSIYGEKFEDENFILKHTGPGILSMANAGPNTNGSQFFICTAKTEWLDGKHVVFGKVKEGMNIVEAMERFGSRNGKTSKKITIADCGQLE

Compound	IC50 (cyclophilin A)	EC50 [1]	inhibition at 1 µM [1]
CO[C@@H]1CC/C=C/c2ccc3c(c2)[C@@H](CC3)OC(=O)[C@@H]2CCCN(N2)C(=O)[C@H](Cc2cccc(O)c2)NC(=O)[C@H](C(C)C)NC(=O)[C@@H]1C [Compound 19]	< 100 nM	< 1000 nM	70%
CC(C)[C@@H]1NC(=O)[C@H](C)[C@H](O)c2ccc(cc2)CCCCOC(=O)[C@@H]2CCCN(N2)C(=O)[C@H](Cc2cccc(O)c2)NC1=O [Compound 9, (8S,14S,17S,20R,21S)-21-Hydroxy-14-(3-hydroxy-benzyl)-17-isopropyl-20-methyl-6-oxa-12,15,18,27-tetraaza-tricyclo[20.2.2.1*8,12*]heptacosa-1(25),22(26),23-triene-7,13,16,19-tetraone]	1000 to 10000 nM	10100 to 100000 nM	4%
CO[C@@H]1CC/C=C/c2cccc(c2)[C@@H](C)NC(=O)[C@@H]2CCCN(N2)C(=O)[C@H](Cc2cccc(O)c2)NC(=O)[C@H](C(C)C)NC(=O)[C@@H]1C [Compound 16, (E)-(2R,5S,11S,14S,17R,18R)-11-(3-Hydroxy-benzyl)-14-isopropyl-18-methoxy-2,17-dimethyl-3,9,12,15,28-pentaaza-tricyclo[21.3.1.1*5,9*]octacosa-1(27),21,23,25-tetraene-4,10,13,16-tetraone]	< 100 nM	< 1000 nM	75%
CO[C@@H]1[C@@H](C)[C@@H](OC)/C=C/C=C/CCOC(=O)[C@@H]2CCCN(N2)C(=O)[C@H](Cc2cccc(O)c2)NC(=O)[C@H](C(C)C)NC(=O)[C@@H]1C [Compound 3, (13E,15E)-(3S,6S,9R,10R,11S,12S,21S)-3-(3-Hydroxy-benzyl)-6-isopropyl-10,12-dimethoxy-9,11-dimethyl-19-oxa-1,4,7,25-tetraaza-bicyclo[19.3.1]pentacosa-13,15-diene-2,5,8,20-tetraone]		< 1000 nM	59%
CO[C@@H]1CCCCc2cccc(c2)[C@@H](C)OC(=O)[C@@H]2CCCN(N2)C(=O)[C@H](Cc2cccc(O)c2)NC(=O)[C@H](C(C)C)NC(=O)[C@@H]1C [Compound 20, (2R,5S,11S,14S,17R,18R)-11-(3-Hydroxy-benzyl)-14-isopropyl-18-methoxy-2,17-dimethyl-3-oxa-9,12,15,28-tetraaza-tricyclo[21.3.1.1*5,9*]octacosa-1(27),23,25-triene-4,10,13,16-tetraone]	< 100 nM	< 1000 nM	92%
CO[C@@H]1CC/C=C/C2=CC=C(COC(=O)[C@@H]3CCCN(N3)C(=O)[C@H](Cc3cccc(O)c3)NC(=O)[C@H](C(C)C)NC(=O)[C@@H]1C)S2 [Compound 26, (E)-(1S,13R,14R,17S,20S)-20-(3-Hydroxy-benzyl)-17-isopropyl-13-methoxy-14-methyl-3-oxa-27-thia-16,19,22,26-tetraaza-tricyclo[20.3.1.1*5,8*]heptacosa-5,7,9-triene-2,15,18,21-tetraone]	101 to 1000 nM	10100 to 100000 nM	9%
CO[C@@H]1CC/C=C/c2cccc(c2)[C@@H](C)OC(=O)[C@@H]2CCCN(N2)C(=O)[C@H](Cc2cccc(O)c2)NC(=O)[C@H](C(C)C)NC(=O)[C@@H]1C [Compound 13, (E)-(2R,5S,11S,14S,17R,18R)-11-(3-Hydroxy-benzyl)-14-isopropyl-18-methoxy-2,17-dimethyl-3-oxa-9,12,15,28-tetraaza-tricyclo[21.3.1.1*5,9*]octacosa-1(26),21,23(27),24-tetraene-4,10,13,16-tetraone]		< 1000 nM	93%
CO[C@@H]1CC/C=C/c2cccc(c2)COC(=O)[C@@H]2CCCN(N2)C(=O)[C@H](Cc2cccc(O)c2)NC(=O)[C@H](C(C)C)NC(=O)[C@@H]1C [Compound 10, (E)-(5S,11S,14S,17R,18R)-11-(3-Hydroxy-benzyl)-14-isopropyl-18-methoxy-17-methyl-3-oxa-9,12,15,28-tetraaza-tricyclo[21.3.1.1*5,9*]octacosa-1(27),21,23,25-tetraene-4,10,13,16-tetraone]			59%
CO[C@@H]1CC/C=C/C=C/CCOC(=O)[C@@H]2CCCN(N2)C(=O)[C@H](Cc2cccc(O)c2)NC(=O)[C@H](C(C)C)NC(=O)[C@@H]1C [Compound 11, (13E,15E)-(3S,6S,9R,10R,21S)-3-(3-Hydroxy-benzyl)-6-isopropyl-10-methoxy-9-methyl-19-oxa-1,4,7,25-tetraaza-bicyclo[19.3.1]pentacosa-13,15-diene-2,5,8,20-tetraone]		< 1000 nM	67%
CC(C)[C@@H]1NC(=O)[C@H](C)[C@H](O)c2ccc(cc2)/C=C/CCOC(=O)[C@@H]2CCCN(N2)C(=O)[C@H](Cc2cccc(O)c2)NC1=O [Compound 8, (E)-(8S,14S,17S,20R,21S)-21-Hydroxy-14-(3-hydroxy-benzyl)-17-isopropyl-20-methyl-6-oxa-12,15,18,27-tetraaza-tricyclo[20.2.2.1*8,12*]heptacosa-1(25),2,22(26),23-tetraene-7,13,16,19-tetraone]	101 to 1000 nM		13%
CO[C@@H]1[C@@H](C)[C@@H](OC)/C=C/C=C/CCNC(=O)[C@@H]2CCCN(N2)C(=O)[C@H](Cc2cccc(O)c2)NC(=O)[C@H](C(C)C)NC(=O)[C@@H]1C [Compound 4, (13E,15E)-(3S,6S,9R,10R,11S,12S,21S)-3-(3-Hydroxy-benzyl)-6-isopropyl-10,12-dimethoxy-9,11-dimethyl-1,4,7,19,25-pentaaza-bicyclo[19.3.1]pentacosa-13,15-diene-2,5,8,20-tetraone]	< 100 nM	1100 to 10000 nM	10%
COc1ccc(C[C@@H]2NC(=O)[C@H](C)[C@H](OC)[C@@H](C)[C@@H](OC)/C=C/C=C/CCOC(=O)[C@@H]3CCCN(N3)C(=O)[C@H](Cc3cccc(O)c3)NC2=O)cc1 [Compound 21, (13 E,15E)-(3S,6S,9R,10R,11S,12S,21S)-3-(3-Hydroxy-benzyl)-10,12-dimethoxy-6-(4-methoxy-benzyl)-9,11-dimethyl-19-oxa-1,4,7,25-tetraazabicyclo[19.3.1]pentacosa-13,15-diene-2,5,8,20-tetraone]	101 to 1000 nM	1100 to 10000 nM	18%
CO[C@@H]1[C@@H](C)[C@@H](OC)CCc2cccc(c2)CNC(=O)[C@@H]2CCCN(N2)C(=O)[C@H](Cc2cccc(O)c2)NC(=O)[C@H](C(C)C)NC(=O)[C@@H]1C [Compound 25, (5S,11S,14S,17R,18R,19S,20S)-11-(3-Hydroxy-benzyl)-14-isopropyl-18,20-dimethoxy-17,19-dimethyl-3,9,12,15,28-pentaaza-tricyclo[21.3.1.1*5,9*]octacosa-1(27),23,25-triene-4,10,13,16-tetraone]	101 to 1000 nM	1100 to 10000 nM	34%
CO[C@@H]1CC/C=C/c2cccc(c2)[C@@H](C)OC(=O)[C@@H]2CCCN(N2)C(=O)[C@H](Cc2cccc(O)c2)NC(=O)[C@H](C(C)C)NC(=O)C1 [Compound 22, (E)-(2R,5S,11S,14S,18R)-11-(3-Hydroxy-benzyl)-14-isopropyl-18-methoxy-2-methyl-3-oxa-9,12,15,28-tetraaza-tricyclo[21.3.1.1*5,9*]octacosa-1(26),21,23(27),24-tetraene-4,10,13,16-tetraone]	< 100 nM	< 1000 nM	70%
